{
  "source": "patent US11723910B1",
  "about": "“Compositions and methods for modulating the endothelial barrier” (University of South Florida, priority 2019, dated 2023)",
  "key": {"[1]": {"test_system": "HUVEC", "assay": "Seahorse glycolytic rate assay in HUVEC", "format": "cell-based, human", "conditions": "Afobazole 300 μM 3 hours prior to the assay vs vehicle", "protocol": "FIGS. 2A and 2B show glycolytic PER (glycoPER) and oxygen consumption rate (OCR) obtained from glycolytic rate assay of cells treated with 100 μM PRE-084 or vehicle for 3 hours. […] FIGS. 2D-2H show assay parameters obtained from the glycolytic rate assay. FIGS. 2I-2K show assay parameters from ATP rate assay. *P<0.05.\n(§1) HUVEC and media were obtained from LifeLine cell technology, PRE-084 from Tocris Biotechne, and CCCP from Abcam. TER was determined with an Electrical Cell-Substrate Impedance Sensor (ECIS; Applied Biophysics). For transfection, 200 nM σ1 siRNA (SEQ ID NO: 2: GGCUUGAGCUCACCACCUA) or control non-targeting RNA (SEQ ID NO: 3: UGGUUUACAUGUUUUCCUA) purchased from Dharmacon was introduced with the Nucleofector II device (Lonza). Cell culture procedures, TER recordings, and protein isolation and transfection protocols have been previously described. Western blotting was done using WES (Protein Simple). Rabbit anti σ1 was purchased from Novus Biologicals NBP1-82479 and mouse anti (β-actin was from cell signaling #3700. Both primaries were used at 1:50 dilution. Seahorse xfp analyzer was used for glycolytic rate and ATP rate with assay kits (Agilent) according to manufacturer's instructions using 40.000 cells/well. Calculation of assay parameters was done using Wave software with its built-in report generators and statistical analysis was done using Prism 7."}, "[2]": {"test_system": "HUVEC monolayers treated with CCCP", "assay": "CCCP-induced barrier disruption (TER) in HUVEC", "format": "cell-based, human", "conditions": "10 μM CCCP", "protocol": "(§2) Because ATP depletion has been reported to disrupt the endothelial barrier (Unno N, et al. (1996) Hyperpermeability and ATP depletion induced by chronic hypoxia or glycolytic inhibition in Caco-2BBe monolayers. Am J Physiol 270(6 Pt 1):G1010-1021), assessment was performed to determine whether carbonyl cyanide m-chlorophenyl hydrazine (CCCP) induced mitochondrial insult causes barrier disruption and whether the barrier-enhancing properties of PRE-084 can counteract this effect. […] To further validate the contribution of σ1 to endothelial barrier function, siRNA was used to selectively reduce σ1 expression in HUVEC.\n(§3) HUVEC and media were obtained from LifeLine cell technology, PRE-084 from Tocris Biotechne, and CCCP from Abcam. TER was determined with an Electrical Cell-Substrate Impedance Sensor (ECIS; Applied Biophysics). For transfection, 200 nM σ1 siRNA (SEQ ID NO: 2: […]) or control non-targeting RNA (SEQ ID NO: 3: […]) purchased from Dharmacon was introduced with the Nucleofector II device (Lonza). Cell culture procedures, TER recordings, and protein isolation and transfection protocols have been previously described. Western blotting was done using WES (Protein Simple). […]"}, "[3]": {"test_system": "sigma-1 receptor (σ1)", "assay": "Western blot of σ1 expression after siRNA knockdown in HUVEC", "format": "cell-based, human", "conditions": "200 nM σ1 siRNA", "protocol": "as §2, §3"}, "[4]": {"test_system": "human umbilical vein endothelial cell (HUVEC) monolayers", "assay": "Transendothelial electrical resistance (TER, ECIS) of HUVEC monolayers", "format": "cell-based", "conditions": "mean TER at 70 h vs non-targeting RNA", "protocol": "as §1"}},
  "data": [
    {"compound": "CCOc1ccc2nc(SCCN3CCOCC3)[nH]c2c1", "note": "[Afobazole]", "values": [
      {"measurement": "glycolytic proton efflux rate", "setting": "[1]", "value": "enhances"},
      {"measurement": "oxygen consumption rate", "setting": "[1]", "value": "lowers"}
    ]},
    {"compound": "carbonyl cyanide m-chlorophenyl hydrazine [CCCP]", "values": [
      {"measurement": "transendothelial electrical resistance (TER) after CCCP", "setting": "[2]", "value": "significantly lowered"}
    ]},
    {"compound": "σ1 siRNA: σ1 siRNA (SEQ ID NO: 2: GGCUUGAGCUCACCACCUA) purchased from Dharmacon (listed as RNA, chemistry not given here)", "values": [
      {"measurement": "decrease in σ1 protein compared to controls", "setting": "[3]; 48-h post-transfection", "value": 47, "unit": "%"},
      {"measurement": "decrease in σ1 protein compared to controls", "setting": "[3]; 70-h post-transfection", "value": 74, "unit": "%"},
      {"measurement": "TER in σ1 siRNA-treated cells compared to control", "setting": "[4]", "value": "significant decreases"}
    ]}
  ]
}
